What was measured:
B. subtilis = conditions: ref Fage et al., 2020; cited from earlier work
B. subtilis 168 = test: Bacterial cell wall integrity; assay type: cell-based; conditions: phase-contrast microscopy
[1] = HS-AFM of fibrils on supported lipid bilayers; assay type: physicochemical; conditions: supported lipid bilayer with lipid II, errors are standard deviation, SD

Row | height of fibrils above the membrane surface [1] | Compound | activity against B. subtilis (B. subtilis) | cell-shape deformations / blebbing phenotype (B. subtilis 168)
1 | – | C=C(CC/C=C\C=C\C[C@H](C)CC(=O)C[C@@H](O)CNC(=O)[C@H](C)[C@@H](C)OC(N)=O)C[C@@H](C)C/C(C)=C/C(=O)O [kalimantacin] | not active | –
2 | – | CN[C@H](CC(C)C)C(=O)N[C@H]1C(=O)N[C@@H](CC(N)=O)C(=O)N[C@H]2C(=O)N[C@H]3C(=O)N[C@H](C(=O)N[C@H](C(=O)O)c4cc(O)cc(O)c4-c4cc3ccc4O)[C@H](O)c3ccc(c(Cl)c3)Oc3cc2cc(c3O[C@@H]2O[C@H](CO)[C@@H](O)[C@H](O)[C@H]2O[C@H]2C[C@](C)(N)[C@H](O)[C@H](C)O2)Oc2ccc(cc2Cl)[C@H]1O [vancomycin] | – | similarly observed
3 | – | hypeptin | – | similarly observed
4 | 0.8 ± 0.1 nm | teixobactin | – | similarly observed
